Laboratory results published in patent publication US20100204203A1, “Chemical Compounds 637: Pyridopyrimidinediones as PDE4 Inhibitors” (priority 2007, published 2010).

Target: recombinant Human Phosphodiesterase B2 (PDE4B2) (Homo sapiens, UniProt Q07343)
Assay: Human Phosphodiesterase B2 Radiometric Assay (yttrium silicate SPA beads, [3H]cyclic AMP)
Format: biochemical
Conditions: recombinant human PDE4B2, radiometric SPA assay, 8 nM [3H]cyclic AMP; read-out: PDE4B2 pIC50 (converted)
Protocol: Human Phosphodiesterase B2 Radiometric Assay
The assay uses recombinant Human Phosphodiesterase B2 (PDE4B2) produced in house (PrAZL0163), stored at −20° C. This assay is based on the observation that 5′AMP, the product of the reaction catalysed by PDE4, binds preferentially to yttrium silicate SPA beads (Amersham Biosciences, UK) compared to the substrate, cAMP. Compounds at the appropriate concentration were preincubated at 30 C for 30 min with an assay buffer containing 50 mM HEPES (pH 7.5), 8.3 mM MgCl2, 1.7 mM EGTA, 0.01% (w/v) Brij° 35 and 0.1 mg/mL recombinant PDE4B2. The reaction was started by the addition of [3H]cyclic AMP to give a final concentration of 8 nM, and was stopped 20 minutes after the addition of the substrate by the addition of yttrium silicate SPA beads containing 18 mM Zn SO4. Bound [3H]cyclic AMP was measured using a Topcount NXT (Packard Bioscience, UK). pIC50 values (presented in Table 15) were determined using Xlfit3 curve fitting, using model 205.

Chain of recombinant Human Phosphodiesterase B2 (PDE4B2) (Q07343 1-564 isoform Q07343-2): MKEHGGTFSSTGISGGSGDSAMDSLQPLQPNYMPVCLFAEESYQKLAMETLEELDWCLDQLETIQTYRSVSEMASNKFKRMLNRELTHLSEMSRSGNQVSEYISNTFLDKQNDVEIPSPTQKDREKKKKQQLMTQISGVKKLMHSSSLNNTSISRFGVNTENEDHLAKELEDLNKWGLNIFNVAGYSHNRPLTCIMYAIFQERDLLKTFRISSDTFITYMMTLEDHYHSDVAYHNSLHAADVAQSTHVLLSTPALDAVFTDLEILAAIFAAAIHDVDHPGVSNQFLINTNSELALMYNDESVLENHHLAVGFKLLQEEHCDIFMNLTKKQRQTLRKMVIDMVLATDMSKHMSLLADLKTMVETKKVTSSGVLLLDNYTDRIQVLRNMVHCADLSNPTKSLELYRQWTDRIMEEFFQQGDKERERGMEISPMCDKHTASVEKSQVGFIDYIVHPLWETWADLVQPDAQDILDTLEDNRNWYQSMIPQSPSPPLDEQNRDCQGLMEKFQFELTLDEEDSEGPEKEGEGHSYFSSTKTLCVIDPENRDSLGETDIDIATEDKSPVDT

| Structure (SMILES) | IC50 [nM] |
| --- | --- |
| Cc1cccc2nc(C(=O)N[C@H]3CC[C@@H](n4c(=O)c5cc(F)cnc5n(-c5cccc(-c6ccc(CN7CCNCC7)cc6)c5)c4=O)CC3)cn12 [Example 111, N-{cis-4-[6-fluoro-2,4-dioxo-1-[4′-(piperazin-1-ylmethyl)biphenyl-3-yl]-1,4-dihydropyrido[2,3-d]pyrimidin-3(2H)-yl]cyclohexyl}-5-methylimidazo[1,2-a]pyridine-2-carboxamide] | 0.0126 |
| CN(C)C1(C(=O)N[C@H]2CC[C@@H](n3c(=O)c4cc(F)cnc4n(-c4cccc(-c5ccc(CN6CCCCC6)cc5)c4)c3=O)CC2)CC1 [Example 125, 1-(dimethylamino)-N-{cis-4-[6-fluoro-2,4-dioxo-1-[4′-(piperidin-1-ylmethyl)biphenyl-3-yl]-1,4-dihydropyrido[2,3-d]pyrimidin-3(2H)-yl]cyclohexyl}cyclopropane-carboxamide] | 0.158 |
| CN(C)CCc1ccc(-c2cccc(-n3c(=O)n([C@H]4CC[C@@H](NC(=O)c5cn6cc(F)ccc6n5)CC4)c(=O)c4cc(F)cnc43)c2)cc1 [Example 99, N-{cis-4-[1-{4′-[2-(dimethylamino)ethyl]biphenyl-3-yl}-6-fluoro-2,4-dioxo-1,4-dihydropyrido[2,3-d]pyrimidin-3(2H)-yl]cyclohexyl}-6-fluoroimidazo[1,2-a]pyridine-2-carboxamide] | 0.126 |
| CN1CCN(CCc2ccc(-c3cccc(-n4c(=O)n([C@H]5CC[C@@H](NC(=O)c6cn7cc(F)ccc7n6)CC5)c(=O)c5cc(F)cnc54)c3)cc2)CC1 [Example 100, 6-fluoro-N-{cis-4-[6-fluoro-1-{4′-[2-(4-methylpiperazin-1-yl)ethyl]biphenyl-3-yl}-2,4-dioxo-1,4-dihydropyrido[2,3-d]pyrimidin-3(2H)-yl]cyclohexyl}imidazo[1,2-a]pyridine-2-carboxamide] | 0.00794 |
| O=C(O)c1ccc(-c2cccc(-n3c(=O)n([C@H]4CC[C@@H](NC(=O)c5cn6cc(F)ccc6n5)CC4)c(=O)c4cc(F)cnc43)c2)cc1 [Example 27, 3′-[6-fiuoro-3-(cis-4-{[(6-fluoroimidazo[1,2-a]pyridin-2-yl)carbonyl]amino}cyclohexyl)-2,4-dioxo-3,4-dihydropyrido[2,3-d]pyrimidin-1(2H)-yl]biphenyl-4-carboxylic acid] | 0.251 |
| CC(C)N(CCO)Cc1ccc(-c2cccc(-n3c(=O)n([C@H]4CC[C@@H](NC(=O)c5cn6c(n5)CCCC6)CC4)c(=O)c4cc(F)cnc43)c2)cc1 [Example 121, N-{cis-4-[6-fluoro-1-(4′-{[(2-hydroxyethyl)(isopropyl)amino]methyl}biphenyl-3-yl)-2,4-dioxo-1,4-dihydropyrido[2,3-d]pyrimidin-3(2H)-yl]cyclohexyl}-5,6,7,8-tetrahydroimidazo[1,2-a]pyridine-2-carboxamide] | 0.158 |
| O=C(N[C@H]1CC[C@@H](n2c(=O)c3cc(F)cnc3n(-c3cccc(-c4ccc(CCCO)cc4)c3)c2=O)CC1)c1cn2cc(F)ccc2n1 [Example 20, 6-fluoro-N-{cis-4-[6-fluoro-1-[4′-(3-hydroxypropyl)biphenyl-3-yl]-2,4-dioxo-1,4-dihydropyrido[2,3-d]pyrimidin-3(2H)-yl]cyclohexyl}imidazo[1,2-a]pyridine-2-carboxamide.] | 0.02 |
| CC(C)NCCCc1ccc(-c2cccc(-n3c(=O)n([C@H]4CC[C@@H](NC(=O)c5cn6cc(F)ccc6n5)CC4)c(=O)c4cc(F)cnc43)c2)cc1 [Example 95, 6-fluoro-N-{cis-4-[6-fluoro-1-{4′-[3-(isopropylamino)propyl]biphenyl-3-yl]-2,4-dioxo-1,4-dihydropyrido[2,3-d]pyrimidin-3(2H)-yl]cyclohexyl}imidazo[1,2-a]pyridine-2-carboxamide] | 0.02 |

More lines, now with the values ahead:

| IC50 [nM] | Structure (SMILES) |
| --- | --- |
| 0.0158 | CN(C)C1(C(=O)N[C@H]2CC[C@@H](n3c(=O)c4cc(F)cnc4n(-c4cccc(-c5ccc(CN6CCN(CCO)CC6)cc5)c4)c3=O)CC2)CC1 [Example 211, 1-(dimethylamino)-N-{cis-4-[6-fluoro-1-(4′-{[4-(2-hydroxyethyl)piperazin-1-yl]methyl}biphenyl-3-yl)-2,4-dioxo-1,4-dihydropyrido[2,3-d]pyrimidin-3(2H)-yl]cyclohexyl}cyclopropanecarboxamide] |
| 0.0316 | C[C@@H]1CN(Cc2ccc(-c3cccc(-n4c(=O)n([C@H]5CC[C@@H](NC(=O)c6ccc7ccccc7n6)CC5)c(=O)c5cc(F)cnc54)c3)cc2)C[C@H](C)N1 [Example 300, N-{cis-4-[1-(4′-{[(3R,5S)-3,5-dimethylpiperazin-1-yl]methyl}biphenyl-3-yl)-6-fluoro-2,4-dioxo-1,4-dihydropyrido[2,3-d]pyrimidin-3(2H)-yl]cyclohexyl} quinoline-2-carboxamide] |
| 1.26 | O=c1c2cc(F)cnc2n(-c2cccc(-c3ccc(O)cc3CN3CCOCC3)c2)c(=O)n1[C@H]1CC[C@@H](NCCCc2ccccc2)CC1 [Example 248, 6-Fluoro-1-[4′-hydroxy-2′-(morpholin-4-ylmethyl)biphenyl-3-yl]-3-{cis-4-[(3-phenylpropyl)amino]cyclohexyl}pyrido[2,3-d]pyrimidine-2,4(1H,3H)-dione] |
| 2.51 | O=C(N[C@H]1CC[C@@H](n2c(=O)c3cc(F)cnc3n(-c3cccc(-c4ccc(CN5CCCOCC5)cc4)c3)c2=O)CC1)c1ccc(OCCN2CCCC2)cc1 [Example 307, N-{cis-4-[6-fluoro-1-[4′-(1,4-oxazepan-4-ylmethyl)biphenyl-3-yl]-2,4-dioxo-1,4-dihydropyrido[2,3-d]pyrimidin-3(2H)-yl]cyclohexyl}-4-(2-pyrrolidin-1-ylethoxy)benzamide] |
| 0.2 | O=c1c2cc(F)cnc2n(-c2cccc(-c3ccc(O)cc3CN3CCOCC3)c2)c(=O)n1[C@H]1CC[C@@H](NCc2cc(Cl)ccc2O)CC1 [Example 250, 3-{cis-4-[(5-Chloro-2-hydroxybenzyl)amino]cyclohexyl}-6-fluoro-1-[4′-hydroxy-2′-(morpholin-4-ylmethyl)biphenyl-3-yl]pyrido[2,3-d]pyrimidine-2,4(1H,3H)-dione] |
| 0.0316 | O=C(N[C@H]1CC[C@@H](n2c(=O)c3cc(F)cnc3n(-c3cccc(-c4ccc(CN5CCCNCC5)cc4)c3)c2=O)CC1)c1cc2ccccc2cn1 [Example 353, N-{cis-4-[1-[4′-(1,4-diazepan-1-ylmethyl)biphenyl-3-yl]-6-fluoro-2,4-dioxo-1,4-dihydropyrido[2,3-d]pyrimidin-3(2H)-yl]cyclohexyl} isoquinoline-3-carboxamide] |
| 0.794 | CN(C)Cc1cc(O)ccc1-c1cccc(-n2c(=O)n([C@H]3CC[C@@H](NCc4cn5cc(F)ccc5n4)CC3)c(=O)c3cc(F)cnc32)c1 [Example 277, 1-{2′-[(dimethylamino)methyl]-4′-hydroxybiphenyl-3-yl}-6-fluoro-3-(cis-4-{[(6-fluoroimidazo[1,2-a]pyridin-2-yl)methyl]amino}cyclohexyl)pyrido[2,3-d]pyrimidine-2,4(1H,3H)-dione] |
| 0.251 | O=C(N[C@H]1CC[C@@H](n2c(=O)c3cc(F)cnc3n(-c3cccc(-c4ccc(CN5CCCOCC5)cc4)c3)c2=O)CC1)C1CC1 [Example 306, N-{cis-4-[6-fluoro-1-[4′-(1,4-oxazepan-4-ylmethyl)biphenyl-3-yl]-2,4-dioxo-1,4-dihydropyrido[2,3-d]pyrimidin-3(2H)-yl]cyclohexyl} cyclopropanecarboxamide] |
| 0.0398 | O=C(N[C@H]1CC[C@@H](n2c(=O)c3cc(F)cnc3n(-c3cccc(-c4ccc(CN5CCCNCC5)cc4)c3)c2=O)CC1)c1nc2ccccc2[nH]1 [Example 354, N-{cis-4-[1-[4′-(1,4-diazepan-1-ylmethyl)biphenyl-3-yl]-6-fluoro-2,4-dioxo-1,4-dihydropyrido[2,3-d]pyrimidin-3(2H)-yl]cyclohexyl}-1H-benzimidazole-2-carboxamide] |
| 0.0398 | Cc1nc(C(=O)N[C@H]2CC[C@@H](n3c(=O)c4cc(F)cnc4n(-c4cccc(-c5ccc(CN6C[C@@H](C)N[C@@H](C)C6)cc5)c4)c3=O)CC2)cs1 [Example 301, N-{cis-4-[1-(4′-{[(3R,5S)-3,5-dimethylpiperazin-1-yl]methyl}biphenyl-3-yl)-6-fluoro-2,4-dioxo-1,4-dihydropyrido[2,3-d]pyrimidin-3(2H)-yl]cyclohexyl}-2-methyl-1,3-thiazole-4-carboxamide] |
| 0.126 | O=c1c2cc(F)cnc2n(-c2cccc(-c3ccc(O)cc3CN3CCCCC3)c2)c(=O)n1[C@H]1CC[C@@H](NCc2cn3cc(F)ccc3n2)CC1 [Example 255, 6-Fluoro-3-(cis-4-{[(6-fluoroimidazo[1,2-c]pyridin-2-yl)methyl]amino}cyclohexyl)-1-[4′-hydroxy-2′-(piperidin-1-ylmethyl)biphenyl-3-yl]pyrido[2,3-d]pyrimidine-2,4(1H,3H)-dione] |
| 0.0398 | O=c1c2cc(F)cnc2n(-c2cccc(-c3ccc(CN4CCCOCC4)cc3)c2)c(=O)n1[C@H]1CC[C@@H](N(Cc2cn3cc(F)ccc3n2)Cc2cn3cc(F)ccc3n2)CC1 [Example 339, 3-(cis-4-{bis[(6-fluoroimidazo[1,2-a]pyridin-2-yl)methyl]amino}cyclohexyl)-6-fluoro-1-[4′-(1,4-oxazepan-4-ylmethyl)biphenyl-3-yl]pyrido[2,3-d]pyrimidine-2,4(1H,3H)-dione] |
